Experimental data taken from patent US20160009686A1, “VEGFR3 INHIBITORS” (CANCER THERAPEUTICS CRC PTY LIMITED, priority 2012, published 2016).

Key:
[1] = target: VEGFR3 cytoplasmic domain (Homo sapiens, UniProt P35916); assay: VEGFR3 Biochemical Assay (AlphaScreen); settings: GST-fusion enzyme, 500 μM ATP, 90 minutes at 30 degree Celsius (modified form in some cases: Hexa-His-fusion enzyme, 1 μM ATP); read-out: IC50
VEGFR3 = VEGFR3 (Homo sapiens, UniProt P35916); assay: VEGFR3 Phospho ELISA Assay; format: cell-based; settings: HMVEC-dLyAD cells, treated for 1 hour, VEGFC stimulated; phospho VEGFR3 relative to Total VEGFR3
Description: Adult human dermal lymphatic microvascular endothelial cells (HMVEC-dLyAD) (Cat# CC-2810, Lonza) were seeded into clear-bottom, TC treated 12 well plates (Cat #665180, Greiner Bio-One) in EGM-2MV (Cat# CC-3202, Lonza) at 180,000 cells/well (volume 1 mL), and the plates incubated at 37° C. and 5% CO2 for 6 hours.
96 well Maxisorp immuno plates (Cat #439454, Nunc) were coated with 100 μL of Total VEGFR3 capture antibody (Part #841888, Human Total VEGFR3/FLT4 ELISA Kit, Cat # DYC3491, R&D Systems), or Phospho VEGFR3 Capture antibody (Part #841885, Human Phospho VEGFR3/FLT4 ELISA Kit, Cat# DYC2724, R&D Systems). The plates were covered and incubated at room temperature overnight.
The coating antibody was flicked out and the plates washed three times with Wash Buffer (Phosphate buffered saline (137 mM NaCl, 2.7 nM KCl, 8.1 nM Na2HPO4, 1.5 mL KH2PO4, pH 7.2-7.4), 0.05% Tween 20). 300 μL of blocking buffer (5% v/v Tween 20, 5% w/v sucrose in PBS) was then added to wells and plate incubated for 2 hours at room temperature. Blocking solution is flicked out and plates washed three times and tapped dry.
Compound dilution series were prepared in EBM-2 (Cat # CC-3156, Lonza)+0.1% BSA (Cat# A8412, Sigma) with constant 0.1% DMSO concentration. 439 μL of sample or vehicle control was added to the cell monolayers. Cells are treated for 1 hour at 37° C. and 5% CO2. 250 ng/mL Recombinant human VEGFC (Cat #2179-VC, R & D Systems) added to wells and plates incubated for an additional 10 minutes at 37° C. and 5% CO2.
(§1) The media and compounds were removed and the cell monolayer washed once in Dulbecco's Phosphate Buffered Saline (Cat #21600-044, Invitrogen). 130 μL of Lysis buffer added to wells and cell lysate harvested and transferred to tubes and stored on ice. Complete lysis buffer was prepared by adding 10 μL Protease Inhibitor Cocktail (Cat # P8340, Sigma-Aldrich), 10 μL PMSF (Phenylmethanesulfonyl fluoride, Cat # P7626, Sigma-Aldrich, prepared as 500 mM DMSO stock) per 1 mL of Phosphosafe™ Extraction Reagent (Cat #71296, Merck).
The harvested samples were then diluted 1:2 in IC Diluent #18 (5% Tween 20/PBS) and 100 μL transferred to the Total and Phospho VEGFR3 coated, blocked and washed 96 well plates and incubated for 2 hours at room temperature. The plates were then washed three times in wash buffer as described above and tapped dry. For detection of Total VEGFR3 100 μL of Detection antibody (Total VEGFR3 Detection Antibody Part#841888 in Total VEGFR3 kit) diluted in IC Diluent #1 (1% w/v BSA (Cat # A7906, Sigma-Aldrich)/PBS) was added to wells and the plate incubated for 2 hours at room temperature. The plate was then washed three times in wash buffer and tapped dry. 100 μL of streptavidin-HPR diluted in IC diluent #1 Streptavidin-HRP, Part #890803 in Total VEGFR3 kit) was added to wells and incubated at room temperature for 20 minutes followed by washing as described above. 100 μL Substrate solution (3,3′,5,5′-Tetramethylbenzidine (TMB) Liquid Substrate System for ELISA, Cat # T0440, Sigma-Aldrich) was added and the plate incubated for 20 minutes in the dark at room temperature followed by the addition of 50 μL stop solution (2 M H2SO4).
Total VEGFR3 levels were quantified using a Multiskan Ascent plate reader and Ascent software fitted with 450 nm filter.
For detection of Phospho VEGFR3, 100 μL of Detection antibody (Anti-Phospho-Tyrosine-HRP Detection Antibody, Part #841403 in Phospho VEGFR3 kit) was diluted in IC Diluent #1 (1% w/v BSA/PBS), added to the wells and the plate incubated for 2 hours at room temperature. The plate was then washed three times in wash buffer as described above and tapped dry. 100 μL Substrate solution (3,3′,5,5′-Tetramethylbenzidine (TMB) Liquid Substrate System for ELISA, Cat # T0440, Sigma-Aldrich) was added and the plate incubated for 20 minutes in the dark at room temperature followed by the addition of 50 μL stop solution (2 M H2SO4).

VEGFR2 = target: T1, VEGFR2 (Homo sapiens, UniProt P35968); assay: VEGFR2 Phospho ELISA Assay; format: cell-based; settings: HUVEC, treated for 1 hour, VEGF stimulated; phospho VEGFR2 relative to Total VEGFR2
T1 construct: host or cells: HUVEC
T1 sequence (P35968 20-1356): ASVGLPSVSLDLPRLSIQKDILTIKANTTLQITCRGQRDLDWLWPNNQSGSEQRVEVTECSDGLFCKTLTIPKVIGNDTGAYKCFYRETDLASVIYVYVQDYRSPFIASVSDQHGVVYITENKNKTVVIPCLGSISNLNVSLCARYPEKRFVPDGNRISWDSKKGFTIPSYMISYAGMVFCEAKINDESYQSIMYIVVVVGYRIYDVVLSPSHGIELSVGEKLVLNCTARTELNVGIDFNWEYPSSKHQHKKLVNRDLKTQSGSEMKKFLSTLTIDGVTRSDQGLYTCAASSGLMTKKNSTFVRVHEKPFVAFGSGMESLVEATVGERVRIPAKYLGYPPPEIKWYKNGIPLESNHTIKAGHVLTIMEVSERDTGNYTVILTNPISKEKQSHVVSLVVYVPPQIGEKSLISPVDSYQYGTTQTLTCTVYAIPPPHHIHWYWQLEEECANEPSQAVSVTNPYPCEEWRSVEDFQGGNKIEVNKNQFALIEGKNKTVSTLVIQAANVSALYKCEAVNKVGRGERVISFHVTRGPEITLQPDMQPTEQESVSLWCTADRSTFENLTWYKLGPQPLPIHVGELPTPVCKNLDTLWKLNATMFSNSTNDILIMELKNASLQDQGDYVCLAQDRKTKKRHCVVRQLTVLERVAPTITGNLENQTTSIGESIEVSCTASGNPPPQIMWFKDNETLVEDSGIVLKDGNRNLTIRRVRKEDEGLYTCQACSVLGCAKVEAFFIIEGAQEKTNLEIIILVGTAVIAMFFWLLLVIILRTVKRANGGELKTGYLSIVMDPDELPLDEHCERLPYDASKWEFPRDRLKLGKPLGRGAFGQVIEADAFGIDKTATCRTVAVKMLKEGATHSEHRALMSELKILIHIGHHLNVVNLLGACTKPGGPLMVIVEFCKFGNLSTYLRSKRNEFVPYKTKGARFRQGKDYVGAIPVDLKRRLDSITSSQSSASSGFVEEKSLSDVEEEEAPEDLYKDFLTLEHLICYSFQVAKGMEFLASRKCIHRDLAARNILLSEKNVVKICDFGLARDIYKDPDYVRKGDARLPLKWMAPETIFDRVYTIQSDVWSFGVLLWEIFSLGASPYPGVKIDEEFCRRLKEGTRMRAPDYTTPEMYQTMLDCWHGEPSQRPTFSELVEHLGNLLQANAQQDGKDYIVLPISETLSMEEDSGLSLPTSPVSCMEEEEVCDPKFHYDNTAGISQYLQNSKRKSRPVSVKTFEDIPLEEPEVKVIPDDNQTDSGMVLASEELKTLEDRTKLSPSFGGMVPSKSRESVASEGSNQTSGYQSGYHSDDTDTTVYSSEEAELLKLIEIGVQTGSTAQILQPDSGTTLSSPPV
Description: Adult human umbilical vein endothelial cells (HUVEC) (Cat# CC-2519, Lonza) were seeded into clear-bottom, TC treated 12 well plates (Cat #665180, Greiner Bio-One) in EGM-2 (Cat# CC-3162, Lonza) at 180,000 cells/well (volume 1 mL), and the plates incubated at 37° C. and 5% CO2 for 6 hours.
96 well Maxisorp immuno plates (Cat #439454, Nunc) were coated with 100 μL of Total VEGFR2 capture antibody (Part #841434, Human Total VEGFR2/FLT4 ELISA Kit, Cat # DYC1780, R&D Systems), or Phospho VEGFR2 Capture antibody (Part #841419, Human Phospho VEGFR2/FLT4 ELISA Kit, Cat# DYC1766, R&D Systems). The plates were covered and incubated at room temperature overnight.
The coating antibody was flicked out and the plates washed three times with Wash Buffer (Phosphate buffered saline (137 mM NaCl, 2.7 nM KCl, 8.1 nM Na2HPO4, 1.5 mL KH2PO4, pH 7.2-7.4), 0.05% Tween 20). 300 μL of Blocking buffer (1% v/v BSA (Cat# A8412, Sigma) in PBS) was then added to wells and plate incubated for 2 hours at room temperature. Blocking solution is flicked out and plates washed three times and tapped dry.
Compound dilution series were prepared in EBM-2 (Cat # CC-3156, Lonza)+0.1% BSA (Cat# A8412, Sigma) with constant 0.1% DMSO concentration. 427.5 μL of sample or vehicle control was added to the cell monolayers. Cells are treated for 1 hour at 37° C. and 5% CO2. 50 ng/mL Recombinant human VEGF (Cat #293-VC, R & D Systems) added to wells and plates incubated for an additional 10 minutes at 37° C. and 5% CO2.
as §1
The plates were then washed three times in wash buffer as described above and tapped dry.
For detection of Total VEGFR2 100 μL of Detection antibody (Total VEGFR2 Detection Antibody Part#841435 in Total VEGFR2 kit) diluted in IC Diluent #14 (20 mM Tris, 137 mM CaCl2, 0.05% Tween20, 0.1% BSA) was added to wells and the plate incubated for 2 hours at room temperature. The plate was then washed three times in wash buffer and tapped dry. 100 μL of streptavidin-HPR diluted in IC diluent #14 Streptavidin-HRP, Part #890803 in Total VEGFR2 kit) was added to wells and incubated at room temperature for 20 minutes followed by washing as described above. 100 μL Substrate solution (3,3′,5,5′-Tetramethylbenzidine (TMB) Liquid Substrate System for ELISA, Cat # T0440, Sigma-Aldrich) was added and the plate incubated for 20 minutes in the dark at room temperature followed by the addition of 50 μL stop solution (2 M H2SO4).
Total VEGFR2 levels were quantified using a Multiskan Ascent plate reader and Ascent software fitted with 450 nm filter.
For detection of Phospho VEGFR2, 100 μL of Detection antibody (Anti-Phospho-Tyrosine-HRP Detection Antibody, Part #841403 in Phospho VEGFR2 kit) was diluted in IC Diluent 14 (20 mM Tris, 137 mM CaCl2, 0.05% Tween20, 0.1% BSA), was added to the wells and the plate incubated for 2 hours at room temperature. The plate was then washed three times in wash buffer as described above and tapped dry. 100 μL Substrate solution (3,3′,5,5′-Tetramethylbenzidine (TMB) Liquid Substrate System for ELISA, Cat # T0440, Sigma-Aldrich) was added and the plate incubated for 20 minutes in the dark at room temperature followed by the addition of 50 μL stop solution (2 M H2SO4).
Phospho VEGFR2 levels were quantified using a Multiscan ascent plate reader and ascent software fitted with 450 nm filter.
IC50 values are determined by first calculating the level of phospho VEGFR2 relative to Total VEGFR2 according to the following formula:

Chain of VEGFR3 cytoplasmic domain (P35916 798-1298 isoform P35916-1): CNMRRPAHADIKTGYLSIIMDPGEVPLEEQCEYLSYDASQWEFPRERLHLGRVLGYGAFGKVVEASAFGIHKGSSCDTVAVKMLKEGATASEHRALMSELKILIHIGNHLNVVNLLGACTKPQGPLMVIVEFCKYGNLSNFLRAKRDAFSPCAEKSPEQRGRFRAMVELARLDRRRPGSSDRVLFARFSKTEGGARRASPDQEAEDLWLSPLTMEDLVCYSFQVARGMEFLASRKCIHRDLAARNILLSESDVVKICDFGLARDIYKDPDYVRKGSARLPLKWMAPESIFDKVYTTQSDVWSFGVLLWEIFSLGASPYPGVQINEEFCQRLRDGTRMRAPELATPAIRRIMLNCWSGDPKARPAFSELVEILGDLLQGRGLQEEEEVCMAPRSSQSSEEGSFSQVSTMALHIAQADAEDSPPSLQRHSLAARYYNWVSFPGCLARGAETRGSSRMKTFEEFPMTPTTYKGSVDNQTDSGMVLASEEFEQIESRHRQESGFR
Chain of VEGFR3 (P35916 25-1363): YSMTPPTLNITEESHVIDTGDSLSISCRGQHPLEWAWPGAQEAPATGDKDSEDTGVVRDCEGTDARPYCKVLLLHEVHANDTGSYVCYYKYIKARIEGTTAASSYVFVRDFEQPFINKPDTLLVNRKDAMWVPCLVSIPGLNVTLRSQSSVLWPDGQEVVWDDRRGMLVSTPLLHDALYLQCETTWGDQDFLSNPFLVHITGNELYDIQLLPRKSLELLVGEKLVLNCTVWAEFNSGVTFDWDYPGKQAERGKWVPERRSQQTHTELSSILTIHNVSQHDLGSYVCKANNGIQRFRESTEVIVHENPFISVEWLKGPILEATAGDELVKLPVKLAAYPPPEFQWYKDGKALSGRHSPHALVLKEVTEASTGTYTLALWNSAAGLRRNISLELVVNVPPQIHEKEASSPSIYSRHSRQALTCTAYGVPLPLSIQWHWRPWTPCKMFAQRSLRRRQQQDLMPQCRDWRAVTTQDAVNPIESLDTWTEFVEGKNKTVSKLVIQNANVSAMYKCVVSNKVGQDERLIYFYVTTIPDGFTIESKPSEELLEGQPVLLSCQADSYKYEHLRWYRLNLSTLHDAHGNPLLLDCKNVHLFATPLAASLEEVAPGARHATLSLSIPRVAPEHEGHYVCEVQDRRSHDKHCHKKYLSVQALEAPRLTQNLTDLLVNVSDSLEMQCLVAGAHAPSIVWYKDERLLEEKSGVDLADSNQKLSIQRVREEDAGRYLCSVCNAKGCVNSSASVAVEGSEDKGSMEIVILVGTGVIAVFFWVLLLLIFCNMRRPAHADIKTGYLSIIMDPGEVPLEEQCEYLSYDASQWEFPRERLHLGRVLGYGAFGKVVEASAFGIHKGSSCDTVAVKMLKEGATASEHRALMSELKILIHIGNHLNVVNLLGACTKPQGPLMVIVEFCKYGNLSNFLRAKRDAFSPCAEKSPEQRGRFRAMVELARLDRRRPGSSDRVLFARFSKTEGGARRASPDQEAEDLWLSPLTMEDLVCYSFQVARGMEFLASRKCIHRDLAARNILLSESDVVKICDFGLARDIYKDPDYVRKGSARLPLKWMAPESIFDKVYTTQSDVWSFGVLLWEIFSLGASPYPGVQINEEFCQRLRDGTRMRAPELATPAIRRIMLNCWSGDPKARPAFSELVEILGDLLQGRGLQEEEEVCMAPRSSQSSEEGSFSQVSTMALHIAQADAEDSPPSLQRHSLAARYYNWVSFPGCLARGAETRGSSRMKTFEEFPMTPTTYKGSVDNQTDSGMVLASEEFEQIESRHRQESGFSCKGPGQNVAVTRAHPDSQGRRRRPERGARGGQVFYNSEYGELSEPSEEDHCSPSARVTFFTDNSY

Row | SMILES | IC50 [1] | IC50 (VEGFR3) | IC50 (VEGFR2)
1 | CCC(C(N)=O)c1ccccc1CCc1nc(Nc2ccc(C3CCNCC3)cc2)ncc1C(F)(F)F (single isomer, unassigned) [Compound 1-1A, 2-(2-(2-(2-((4-(Piperidin-4-yl)phenyl)amino)-5-(trifluoromethyl)pyrimidin-4-yl)ethyl)phenyl)butanamide] | 103 nM | 329 nM | –
2 | CCC(C(N)=O)c1ccccc1CCc1nc(Nc2ccc(C3CCNCC3)cc2)ncc1C(F)(F)F (single isomer, unassigned) [Compound 1-2A, 2-(2-(2-(2-((4-(Piperidin-4-yl)phenyl)amino)-5-(trifluoromethyl)pyrimidin-4-yl)ethyl)phenyl)butanamide] | 75 nM | 315 nM | –
3 | CC(C(N)=O)c1ccccc1CCc1nc(Nc2cnn(C3CCN(C)CC3)c2)ncc1C(F)(F)F (single isomer, unassigned) [Compound 57-1A, 2-(2-(2-(2-((1-(1-Methylpiperidin-4-yl)-1H-pyrazol-4-yl)amino)-5-(trifluoromethyl)pyrimidin-4-yl)ethyl)phenyl)propanamide] | – | – | 518 nM
4 | NC(=O)C1(c2ccccc2CCc2nc(Nc3ccc(C4CCNCC4)cc3)ncc2C(F)(F)F)CC1 [Compound 2, 1-(2-(2-(2-((4-(Piperidin-4-yl)phenyl)amino)-5-(trifluoromethyl)pyrimidin-4-yl)ethyl)phenyl)cyclopropanecarboxamide] | 10 nM | 26 nM | 283 nM
5 | CN1CCC(c2ccc(Nc3ncc(C(F)(F)F)c(CCc4ccccc4C4(C(N)=O)CC4)n3)cc2)CC1 [Compound 3, 1-(2-(2-(2-((4-(1-methylpiperidin-4-yl)phenyl)amino)-5-(trifluoromethyl)pyrimidin-4-yl)ethyl)phenyl)cyclopropanecarboxamide] | 9 nM | 27 nM | 1790 nM
6 | NC(=O)C1(c2ccccc2CCc2nc(Nc3ccc(C4CCNCC4)nc3)ncc2C(F)(F)F)CC1 [Compound 5, 1-(2-(2-(2-((6-(Piperidin-4-yl)pyridin-3-yl)amino)-5-(trifluoromethyl)pyrimidin-4-yl)ethyl)phenyl)cyclopropanecarboxamide] | 28 nM | 51 nM | 4080 nM
7 | NC(=O)C1(c2ccccc2CCc2nc(Nc3cccnc3)ncc2Cl)CC1 [Compound 6, 1-(2-(2-(5-chloro-2-(pyridin-3-ylamino)pyrimidin-4-yl)ethyl)phenyl)cyclopropanecarboxamide] | 8 nM | 17 nM | 6610 nM
8 | NC(=O)C1(c2ccccc2CCc2nc(Nc3ccc(C4CCNCC4)cc3)ncc2Cl)CC1 [Compound 7, 1-(2-(2-(5-chloro-2-((4-(piperidin-4-yl)phenyl)amino)pyrimidin-4-yl)ethyl)phenyl)cyclopropanecarboxamide] | 10 nM | 38 nM | –
9 | CN1CCC(c2ccc(Nc3ncc(Cl)c(CCc4ccccc4C4(C(N)=O)CC4)n3)cc2)CC1 [Compound 8, 1-(2-(2-(5-chloro-2-((4-(1-methylpiperidin-4-yl)phenyl)amino)pyrimidin-4-yl)ethyl)phenyl)cyclopropanecarboxamide] | 10 nM | 19 nM | 897 nM
10 | NC(=O)C1(c2ccccc2CCc2nc(Nc3ccc(C(F)(F)F)nc3)ncc2Cl)CC1 [Compound 9, 1-(2-(2-(5-chloro-2-((6-(trifluoromethyl)pyridin-3-yl)amino)pyrimidin-4-yl)ethyl)phenyl)cyclopropanecarboxamide] | 26 nM | 75 nM | […]
11 | Cn1cc(Nc2ncc(Cl)c(CCc3ccccc3C3(C(N)=O)CC3)n2)cn1 [Compound 13, 1-(2-(2-(5-Chloro-2-((1-methyl-1H-pyrazol-4-yl)amino)pyrimidin-4-yl)ethyl)phenyl)cyclopropanecarboxamide] | 4 nM | 9 nM | –
12 | NC(=O)C1(c2ccccc2CCc2nc(Nc3cnn(C4CNC4)c3)ncc2Cl)CC1 [Compound 14, 1-(2-(2-(2-((1-(Azetidin-3-yl)-1H-pyrazol-4-yl)amino)-5-chloropyrimidin-4-yl)ethyl)phenyl)cyclopropanecarboxamide] | 6 nM | 30 nM | 357 nM
13 | NC(=O)C1(c2ccccc2CCc2nc(Nc3ccc(C4CCNCC4)nc3)ncc2Cl)CC1 [Compound 15, 1-(2-(2-(5-Chloro-2-((6-(piperidin-4-yl)pyridin-3-yl)amino)pyrimidin-4-yl)ethyl)phenyl)cyclopropanecarboxamide] | 11 nM | 51 nM | 2000 nM
14 | CC(NC(=O)OC(C)(C)C)c1ccc(Nc2ncc(Cl)c(CCc3ccccc3C3(C(N)=O)CC3)n2)cc1 (stereo not shown) [Compound 24, tert-Butyl (1-(4-((4-(2-(1-carbamoylcyclopropyl)phenethyl)-5-chloropyrimidin-2-yl)amino)phenyl)ethyl)carbamate] | 2 nM | 25 nM | –
15 | CC(N)c1ccc(Nc2ncc(Cl)c(CCc3ccccc3C3(C(N)=O)CC3)n2)cc1 (stereo not shown) [Compound 24A, 1-(2-(2-(2-((4-(1-Aminoethyl)phenyl)amino)-5-chloropyrimidin-4-yl)ethyl)phenyl)cyclopropanecarboxamide] | 14 nM | – | 209 nM
16 | Cc1cnc(Nc2cnn(C)c2)nc1CCc1ccccc1C(C)C(N)=O (stereo not shown) [Compound 51, 2-(2-(2-(5-Methyl-2-((1-methyl-1H-pyrazol-4-yl)amino)pyrimidin-4-yl)ethyl)phenyl)propanamide] | 15 nM | 526 nM | –

Row | SMILES | IC50 [1] | IC50 (VEGFR3) | IC50 (VEGFR2)
17 | NC(=O)C1(c2ccccc2CCc2nc(Nc3ccc(C4CCNCC4)cc3)ncc2C(F)(F)F)CCC1 [Compound 52, 1-(2-(2-(2-((4-(Piperidin-4-yl)phenyl)amino)-5-(trifluoromethyl)pyrimidin-4-yl)ethyl)phenyl)cyclobutanecarboxamide] | 23 nM | – | –
18 | NC(=O)C1(c2cccc(CCc3nc(Nc4cnn(C5CCNCC5)c4)ncc3C(F)(F)F)c2)CC1 [Compound 53, 1-(3-(2-(2-((1-(Piperidin-4-yl)-1H-pyrazol-4-yl)amino)-5-(trifluoromethyl)pyrimidin-4-yl)ethyl)phenyl)cyclopropanecarboxamide] | 228 nM | – | –
19 | CC(C(N)=O)c1ccccc1CCc1nc(Nc2cn[nH]c2)ncc1C(F)(F)F (stereo not shown) [Compound 54, 2-(2-(2-(2-((1H-Pyrazol-4-yl)amino)-5-(trifluoromethyl)pyrimidin-4-yl)ethyl)phenyl)propanamide] | 17 nM | – | –
20 | COc1ccc(Nc2ncc(C(F)(F)F)c(CCc3ccccc3C(C)C(N)=O)n2)cn1 (stereo not shown) [Compound 61, 2-(2-(2-(2-((6-Methoxypyridin-3-yl)amino)-5-(trifluoromethyl)pyrimidin-4-yl)ethyl)phenyl) propanamide] | 118 nM | – | –
21 | CC(C(N)=O)c1ccccc1CCc1nc(Nc2ccc(C3CCNCC3)nc2)ncc1C(F)(F)F (stereo not shown) [Compound 62, 2-(2-(2-(2-((6-(Piperidin-4-yl)pyridin-3-yl)amino)-5-(trifluoromethyl)pyrimidin-4-yl)ethyl)phenyl)propanamide] | 492 nM | – | –
22 | CC(C(N)=O)c1ccccc1CCc1nc(Nc2ccc(C3CCN(C)CC3)nc2)ncc1C(F)(F)F (stereo not shown) [Compound 63, 2-(2-(2-(2-((6-(1-Methylpiperidin-4-yl)pyridin-3-yl)amino)-5-(trifluoromethyl)pyrimidin-4-yl)ethyl)phenyl)propanamide] | 28 nM | – | –
23 | COc1ccc(Nc2ncc(C(F)(F)F)c(CCc3ccccc3C3(C(N)=O)CC3)n2)cn1 [Compound 64, 1-(2-(2-(2-((6-Methoxypyridin-3-yl)amino)-5-(trifluoromethyl)pyrimidin-4-yl)ethyl)phenyl)cyclopropanecarboxamide] | 8 nM | 394 nM | –
24 | Cn1cc(Nc2ncc(C(F)(F)F)c(CCc3ccccc3C3(C(N)=O)CC3)n2)cn1 [Compound 65, 1-(2-(2-(2-((1-Methyl-1H-pyrazol-4-yl)amino)-5-(trifluoromethyl)pyrimidin-4-yl)ethyl)phenyl)cyclopropanecarboxamide] | 3 nM | – | –
25 | NC(=O)C1(c2ccccc2CCc2nc(Nc3cnn(C4CCNCC4)c3)ncc2C(F)(F)F)CC1 [Compound 66, 1-(2-(2-(2-((1-(Piperidin-4-yl)-1H-pyrazol-4-yl)amino)-5-(trifluoromethyl)pyrimidin-4-yl)ethyl)phenyl)cyclopropanecarboxamide] | 7 nM | – | –
26 | CN1CCC(n2cc(Nc3ncc(C(F)(F)F)c(CCc4ccccc4C4(C(N)=O)CC4)n3)cn2)CC1 [Compound 67, 1-(2-(2-(2-((1-(1-Methylpiperidin-4-yl)-1H-pyrazol-4-yl)amino)-5-(trifluoromethyl)pyrimidin-4-yl)ethyl)phenyl)cyclopropanecarboxamide] | 7 nM | – | –
27 | CN1CCC(c2ccc(Nc3ncc(C(F)(F)F)c(CCc4ccccc4C4(C(N)=O)CC4)n3)cn2)CC1 [Compound 69, 1-(2-(2-(2-((6-(1-Methylpiperidin-4-yl)pyridin-3-yl)amino)-5-(trifluoromethyl)pyrimidin-4-yl)ethyl)phenyl)cyclopropanecarboxamide] | 63 nM | – | –
28 | CC(N)c1ccc(Nc2ncc(C(F)(F)F)c(CCc3ccccc3C3(C(N)=O)CC3)n2)cc1 (stereo not shown) [Compound 70A, 1-(2-(2-(2-(4-(1-Aminoethyl)phenylamino)-5-(trifluoromethyl)pyrimidin-4-yl)ethyl)phenyl)cyclopropanecarboxamide] | 22 nM | – | –
29 | CC(=O)NC(C)c1ccc(Nc2ncc(C(F)(F)F)c(CCc3ccccc3C3(C(N)=O)CC3)n2)cc1 (stereo not shown) [Compound 71, 1-(2-(2-(2-(4-(1-Acetamidoethyl)phenylamino)-5-(trifluoromethyl)pyrimidin-4-yl)ethyl)phenyl)cyclopropanecarboxamide] | 10 nM | – | –
30 | NC(=O)C1(c2ccccc2CCc2nc(Nc3cnn(CCO)c3)ncc2Cl)CC1 [Compound 76] | 4 nM | – | –
31 | COCCn1cc(Nc2ncc(Cl)c(CCc3ccccc3C3(C(N)=O)CC3)n2)cn1 [Compound 77] | 3 nM | – | –
